Experimental data reported in patent publication US20220040255A1, “CHEMOTHERAPEUTIC REMODELING OF THE GUT MICROBIOME” (THE SCRIPPS RESEARCH INSTITUTE, priority 2018, published 2022).
Where a SMILES comes first, the peptide text is derived from it. [ ]: non-standard residue; d: D form.

Tests used:
bile acids = bile acids in feces and plasma by targeted metabolomics; assay type: in vivo; details: WD-fed LDLr−/− mice, 2-wk treatment
Description: Measurement of secondary bile acids. Feces were obtained between 0900-1100 am from non-fasted animals after a 2-wk treatment period. Bile acids were extracted from samples according to published procedures (Wegner et al., Anal. Bioanal. Chem. 409, 1231-1245, 2017). Briefly, fecal samples were lyophilized and homogenized. Five milligrams of fecal powder were extracted with 250 μl of methanol containing heavy internal standards. Fifty microliters of plasma were extracted with 150 μL of methanol containing heavy internal standards. After vortexing for 10 minutes and centrifuging (16,000×g, 4 C, 10 min), supernatants were transferred to glass vials for injection and analysis by LCMS. Bile acids were analyzed on a Dionex Ultimate 3000 LC system (Thermo) coupled to a TSQ Quantiva mass spectrometer (Thermo) fitted with a Kinetex C18 reversed phase column (2.6 μm, 150×2.1 mm i.d., Phenomenex). The following LC solvents were used: solution A, 0.1% formic acid and 20 mM ammonium acetate in water, solution B, acetonitrile/methanol (3/1, v/v) containing 0.1% formic acid and 20 mM ammonium acetate. The following reversed phase gradient was utilized: at a flow rate of 0.2 mL/min with a gradient consisting of 25-29% B in 1 min, 29-33% B in 14 min, 33-70% B in 15 min, up to 100% B in 1 min, 100% B for 9 min and re-equilibrated to 25% B for 10 min, for a total run time of 50 min. The injection volume for all samples was 10 μL, the column oven temperature was set to 50° C. and the autosampler kept at 4° C. MS analyses were performed using electrospray ionization in positive and negative ion modes, with spray voltages of 3.5 and −3 kV, respectively, ion transfer tube temperature of 325° C., and vaporizer temperature of 275° C. Multiple reaction monitoring (MRM) was performed by using mass transitions between specific parent ions into corresponding fragment ions for each analyte.

[1] = tested on: gut microbiota metabolites; test: fecal SCFA and amino acid measurements (LC-MS); assay type: in vivo, LDLr−/− mice
Description: SCFA and amino acid measurements. Fecal SCFA and amino acid content was measured by liquid chromatography-mass spectrometry (LC-MS). The fecal samples were weighed and placed into 2 ml Omni tubes. Ethanol was added to bring the volume to 350 μl. Next, 4 μl of 500 μM d-FA-mix and 20 μl of 1 mM 3CHPA were added to each sample as internal standard. The samples were homogenized using an Omni bead beater at the speed of 4.5 m/s for 30 sec, and then centrifuged at 13,000 rpm for 15 min. 90 μl of the supernatants was transferred into glass HPLC vials. 30 μl of freshly prepared 4×3NPH solution (160 mM 3-nitrophenylhydrazine, 150 mM EDC, pyridine 12% vol, 50% acetonitrile) was added to each sample and the reactions were held at room temperature for 30 min. 2 μl of the sample was injected into the LC-MS (Agilent 1290 HPLC, 6550 qTOF). The concentration of each SCFA and amino acid was calculated based on a standard curve and normalized by the internal control and the feces weight.

[2] = tested on: gut microbiota transcriptome; test: bacterial RNA-seq of feces (microbiota transcriptome); assay type: in vivo, LDLr−/− mice
Description: Bacterial RNA-seq sample preparation and sequencing. Total bacterial RNA from feces samples was isolated with ZR Soil/Fecal RNA MicroPrep (Zymo research) following the manufacturer's instructions. Briefly, the sample was suspended in RNA lysis buffer and lysed by the mixer (Retsch). The supernatant was transferred to a RNA-binding column and washed several times with RNA wash buffer. In-column DNaseI digestion at 25° C. for 15 min was performed to eliminate DNA contamination in the sample. The presence of genomic DNA contamination was assessed by PCR with universal 16S rRNA gene primers. Before RNA-seq library preparation, rRNA was removed from 2 μg of total bacterial RNA with Ribo-Zero Bacteria kit (Illumina). 100 ng of purified RNA was used for RNA-seq library preparation as described previously^56. The cDNA was synthesized by reverse transcription with SuperScript III (Life technologies) and second-strand synthesis (New England Biolabs). The sequencing library was generated from purified cDNA with Nextera XT DNA library preparation kit (Illumina) and amplified by PCR. Cycling conditions were 72° C. for 3 min, 95° C. for 30 s, followed by 16 cycles of 95° C. for 10 s, 55° C. for 30 s, and 72° C. for 30 s. A condition of 72° C. for 5 min was used for the final elongation step. Libraries with different indexes were pooled and single-end sequencing (75 bp) was performed on an Illumina NextSeq at the Scripps Research Institute next generation sequencing core.
Functional analysis of bacterial RNA-seq data. We used BWA (version 0.7.12) read alignment program and a custom-built bacterial reference database, which contains 4,700 bacterial genomes from NCBI NR sequence database, to map RNA-seq reads. The reads aligned to individual bacterial genes were counted using HTSeq count (version 0.6.0) and the counts were further normalized based on size factors estimated using the median of the ratios of observed counts method as described previously (Anders et al., Genome Biol. 11, R106, 2010). The proteins predicted by RNA-seq read alignment were annotated with DIAMOND (version 0.8.26) using the NCBI nonredundant (NCBI-nr) database and the default setting (BLASTX e value <10^−3, bit score >50). For query genes with multiple matches, the annotated reference gene with the lowest e value was chosen. The functional analysis was performed by MEGAN (version 5.11.3) and KEGG analyzer was used to determine read counts in different metabolic pathways from each group. The aggregate expression level changes for sequences within a given function were normalized before the comparison between each group.

## CC(C)C[C@@H]1NC(=O)[C@@H](Cc2c[nH]c3ccccc23)NC(=O)[C@H](CCCNC(=N)N)NC(=O)[C@@H](CCC(=O)O)NC(=O)[C@H](CCC(N)=O)NC(=O)[C@@H](CCC(=O)O)NC(=O)[C@H](CCCNC(=N)N)NC(=O)[C@@H](Cc2c[nH]c3ccccc23)NC1=O [c[wLwReQeR]] (cyclo([dW]L[dW]R[dE]Q[dE]R))
Bile acids; feces
  CA level: 440 ± 490 pmol/mg feces
  DCA level: 4900 ± 2400 pmol/mg feces
  HCA level: 1.6 ± 1.1 pmol/mg feces
  LCA level: 400 ± 170 pmol/mg feces
  T-CA level: 8.3 ± 3.3 pmol/mg feces
  T-DCA level: 2.6 ± 1.2 pmol/mg feces
  T-HCA level: 0.097 ± 0.03 pmol/mg feces
  T-α-MCA level: 17 ± 8.7 pmol/mg feces
  T-β-MCA level: 20 ± 11 pmol/mg feces
  T-ω-MCA level: 3 ± 1.4 pmol/mg feces
  UDCA level: 43 ± 16 pmol/mg feces
  α-MCA level: 21 ± 8.9 pmol/mg feces
  β-MCA level: 65 ± 12 pmol/mg feces
  ω-MCA level: 170 ± 100 pmol/mg feces
Bile acids; plasma
  CA level: 6300 ± 8300 pmol/mL plasma
  DCA level: 2100 ± 2100 pmol/mL plasma
  HCA level: 1.0 ± 0.84 pmol/mL plasma
  LCA level: 100 ± 48 pmol/mL plasma
  T-CA level: 16000 ± 31000 pmol/mL plasma
  T-DCA level: 830 ± 1100 pmol/mL plasma
  T-HCA level: 62 ± 110 pmol/mL plasma
  T-α-MCA level: 1900 ± 3900 pmol/mL plasma
  T-β-MCA level: 9800 ± 22000 pmol/mL plasma
  T-ω-MCA level: 2400 ± 4900 pmol/mL plasma
  UDCA level: 120 ± 92 pmol/mL plasma
  α-MCA level: 10 ± 5.8 pmol/mL plasma
  β-MCA level: 76 ± 75 pmol/mL plasma
  ω-MCA level: 33 ± 11 pmol/mL plasma
[1]; fecal samples, two-week treatment
  levels of fatty acids containing 4-6 carbons, including butyrate: increased levels
[1]; feces, two-week course
  levels of tryptophan and phenylalanine in the feces: higher levels
[2]; feces, 2-week treatment
  overall gene expression from Bacteroidetes: increased
  overall gene expression from Firmicutes: reduced
[2]; microbiota transcriptome
  acetoacetate-CoA transferase levels compared to vehicle: higher
  butyryl-CoA dehydrogenase levels compared to vehicle: lower
